What was measured:
Parameters in all cases: species or system AML cell lines (8); Primary HTS, single concentration about 10 uM, Cell Titer Glo viability; log10 luminescence, per cent inhibition relative to cycloheximide control
Conditions in all cases: 72 h, relative to cycloheximide control, log10 luminescence; inhibitor
[1] = tested on: CMS
[2] = tested on: MOLM-13
[3] = tested on: U937
[4] = tested on: CMK
[5] = tested on: ML-2
[6] = tested on: M07e
[7] = tested on: MV4-11
[8] = tested on: CHRF288-11

COc1cccc2c1c(C1=C(c3cn(C)c4ccccc34)C(=O)NC1=O)cn2C [SJ000581070-1]
CMS %inh [1]: -1.314% | MOLM-13 %inh [2]: 2.978% | U937 %inh [3]: -0.4175% | CMK %inh [4]: 10.2% | ML-2 %inh [5]: -0.1682% | M07e %inh [6]: 5.504% | MV4-11 %inh [7]: 0.2803% | CHRF288-11 %inh [8]: 8.87%

CN=C1NC(=O)/C(=C/c2ccc3ncccc3c2)S1 [SJ000581072-1]
CMS %inh [1]: 9.143% | MOLM-13 %inh [2]: 28.17% | U937 %inh [3]: 7.703% | CMK %inh [4]: 44.3% | ML-2 %inh [5]: 4.634% | M07e %inh [6]: 18.48% | MV4-11 %inh [7]: 9.718% | CHRF288-11 %inh [8]: 174.6%

O=C1NC(=NCc2ccccc2)S/C1=C\c1ccc2ncccc2c1 [SJ000581073-1]
CMS %inh [1]: 5.2% | MOLM-13 %inh [2]: 18.77% | U937 %inh [3]: 3.079% | CMK %inh [4]: 48.96% | ML-2 %inh [5]: 2.983% | M07e %inh [6]: 12.28% | MV4-11 %inh [7]: 27.42% | CHRF288-11 %inh [8]: 5.173%

CS(=O)(=O)CCCn1c(=O)c(Oc2ccc(F)cc2F)cc2cnc(NC3CCOCC3)nc21 [SJ000581074-1]
CMS %inh [1]: -2.642% | MOLM-13 %inh [2]: -2.241% | U937 %inh [3]: 1.649% | CMK %inh [4]: -0.8153% | ML-2 %inh [5]: 1.736% | M07e %inh [6]: 4.622% | MV4-11 %inh [7]: -0.6859% | CHRF288-11 %inh [8]: 5.377%

O=C1NC(=O)C(c2c[nH]c3ccccc23)=C1c1ccccc1 [SJ000581075-1]
CMS %inh [1]: -0.679% | MOLM-13 %inh [2]: -2.51% | U937 %inh [3]: 2.672% | CMK %inh [4]: -2.624% | ML-2 %inh [5]: 1.922% | M07e %inh [6]: 3.019% | MV4-11 %inh [7]: 1.744% | CHRF288-11 %inh [8]: 16.2%

Nc1c(C(=O)c2cccc(-c3ccncc3)c2)cnn1-c1ccc(F)cc1F [SJ000581077-1]
CMS %inh [1]: 10.55% | MOLM-13 %inh [2]: 13.91% | U937 %inh [3]: 32.29% | CMK %inh [4]: 75.1% | ML-2 %inh [5]: 15.89% | M07e %inh [6]: 29.92% | MV4-11 %inh [7]: 3.251% | CHRF288-11 %inh [8]: 21.24%

Cn1cc(C2=C(c3cn(C)c4cc(Cl)ccc34)C(=O)NC2=O)c2ccccc21 [SJ000581078-1]
CMS %inh [1]: 103.6% | MOLM-13 %inh [2]: 85.69% | U937 %inh [3]: 87.46% | CMK %inh [4]: 127.5% | ML-2 %inh [5]: 61.36% | M07e %inh [6]: 100% | MV4-11 %inh [7]: 84.42% | CHRF288-11 %inh [8]: 127%

Cc1ccc2c(c1)c(C1=C(c3cn(C)c4ccccc34)C(=O)NC1=O)cn2C [SJ000581079-1]
CMS %inh [1]: 12.87% | MOLM-13 %inh [2]: 61.76% | U937 %inh [3]: 21.19% | CMK %inh [4]: 50.85% | ML-2 %inh [5]: 12.05% | M07e %inh [6]: 21.17% | MV4-11 %inh [7]: 11.84% | CHRF288-11 %inh [8]: 31.79%

Cn1cc(C2=C(c3c4n(c5ccccc35)CCNC4)C(=O)NC2=O)c2ccccc21 [SJ000581080-1]
CMS %inh [1]: 16.83% | MOLM-13 %inh [2]: 62.95% | U937 %inh [3]: 18.44% | CMK %inh [4]: 60.56% | ML-2 %inh [5]: 12.57% | M07e %inh [6]: 25.69% | MV4-11 %inh [7]: 15.28% | CHRF288-11 %inh [8]: 19.49%

COc1ccc(OC)c(C2=C(c3cn(C)c4ccccc34)C(=O)NC2=O)c1 [SJ000581081-1]
CMS %inh [1]: 0.8246% | MOLM-13 %inh [2]: -2.282% | U937 %inh [3]: -0.9957% | CMK %inh [4]: 3.003% | ML-2 %inh [5]: -0.4206% | M07e %inh [6]: 2.921% | MV4-11 %inh [7]: 1.033% | CHRF288-11 %inh [8]: 7.567%

COc1ccc2c(C3=C(c4cn(C)c5ccccc45)C(=O)NC3=O)cn(C)c2c1 [SJ000581082-1]
CMS %inh [1]: 102.2% | MOLM-13 %inh [2]: 81.86% | U937 %inh [3]: 79.84% | CMK %inh [4]: 107.7% | ML-2 %inh [5]: 51.13% | M07e %inh [6]: 103.9% | MV4-11 %inh [7]: 77.51% | CHRF288-11 %inh [8]: 125.3%

O=[N+]([O-])c1ccc2c(c1)C(c1ccccc1Cl)=Nc1cn[nH]c1N2 [SJ000581083-1]
CMS %inh [1]: -0.274% | MOLM-13 %inh [2]: -2.48% | U937 %inh [3]: -1.165% | CMK %inh [4]: -5.045% | ML-2 %inh [5]: -0.08337% | M07e %inh [6]: 4.12% | MV4-11 %inh [7]: 0.3353% | CHRF288-11 %inh [8]: -0.2746%

Cn1cc(C2=C(c3cn(C)c4c(N)cccc34)C(=O)NC2=O)c2ccccc21 [SJ000581084-1]
CMS %inh [1]: 26.64% | MOLM-13 %inh [2]: 57.26% | U937 %inh [3]: 30.59% | CMK %inh [4]: 34.34% | ML-2 %inh [5]: 31.97% | M07e %inh [6]: 30.04% | MV4-11 %inh [7]: 35.68% | CHRF288-11 %inh [8]: 31.5%

COC[C@H](N=C1NC(=O)/C(=C/c2ccc3ncccc3c2)S1)c1ccccc1 [SJ000581086-1]
CMS %inh [1]: 4.472% | MOLM-13 %inh [2]: -1.579% | U937 %inh [3]: 4.246% | CMK %inh [4]: 5.986% | ML-2 %inh [5]: 2.549% | M07e %inh [6]: 15.62% | MV4-11 %inh [7]: -0.3199% | CHRF288-11 %inh [8]: 2.677%

Fc1ccc(-c2c(-c3ccncc3)[nH]c3cccnc23)cc1 [SJ000581088-1]
CMS %inh [1]: 0.767% | MOLM-13 %inh [2]: -2.723% | U937 %inh [3]: 1.73% | CMK %inh [4]: -0.07997% | ML-2 %inh [5]: -1.446% | M07e %inh [6]: 3.19% | MV4-11 %inh [7]: 0.5271% | CHRF288-11 %inh [8]: 1.888%

N#CCn1c(=O)c(Oc2ccc(F)cc2F)cc2cnc(NC3CCOCC3)nc21 [SJ000581089-1]
CMS %inh [1]: 1.167% | MOLM-13 %inh [2]: 79.15% | U937 %inh [3]: 0.6532% | CMK %inh [4]: 1.27% | ML-2 %inh [5]: 0.2559% | M07e %inh [6]: 5.15% | MV4-11 %inh [7]: 0.2945% | CHRF288-11 %inh [8]: 0.7869%

Nc1c(C(=O)c2cccc(C#CCN3CCCCC3)c2)cnn1-c1ccc(F)cc1 [SJ000581090-1]
CMS %inh [1]: 8.688% | MOLM-13 %inh [2]: 0.3011% | U937 %inh [3]: 7.38% | CMK %inh [4]: -1.859% | ML-2 %inh [5]: 0.9731% | M07e %inh [6]: 8.075% | MV4-11 %inh [7]: 1.177% | CHRF288-11 %inh [8]: 2.1%

O=c1[nH]c2nc(NC3CCOCC3)ncc2cc1Oc1ccc(F)cc1F [SJ000581091-1]
CMS %inh [1]: 4.57% | MOLM-13 %inh [2]: -2.415% | U937 %inh [3]: 1.694% | CMK %inh [4]: -0.7252% | ML-2 %inh [5]: -1.12% | M07e %inh [6]: 7.401% | MV4-11 %inh [7]: 0.8036% | CHRF288-11 %inh [8]: 2.671%

COc1cccc(C2=C(c3cn(C)c4cccc(OC)c34)C(=O)NC2=O)c1 [SJ000581093-1]
CMS %inh [1]: 2.878% | MOLM-13 %inh [2]: 14.52% | U937 %inh [3]: 7.981% | CMK %inh [4]: 64.38% | ML-2 %inh [5]: 1.141% | M07e %inh [6]: 15.31% | MV4-11 %inh [7]: 0.2916% | CHRF288-11 %inh [8]: 15.23%

Cn1c(=O)c(Sc2ccccc2F)cc2cnc(NC3CCOCC3)nc21 [SJ000581094-1]
CMS %inh [1]: -0.09142% | MOLM-13 %inh [2]: -2.304% | U937 %inh [3]: -2.114% | CMK %inh [4]: -1.429% | ML-2 %inh [5]: -0.9832% | M07e %inh [6]: 79.34% | MV4-11 %inh [7]: 1.745% | CHRF288-11 %inh [8]: 5.078%

Cn1cc(C2=C(c3cn(C)c4c([N+](=O)[O-])cccc34)C(=O)NC2=O)c2ccccc21 [SJ000581096-1]
CMS %inh [1]: -0.5679% | MOLM-13 %inh [2]: -1.995% | U937 %inh [3]: -1.424% | CMK %inh [4]: 1.442% | ML-2 %inh [5]: -1.675% | M07e %inh [6]: 3.87% | MV4-11 %inh [7]: 1.039% | CHRF288-11 %inh [8]: -0.1815%

Cn1cc(C2=C(c3cccnc3)C(=O)NC2=O)c2ccccc21 [SJ000581097-1]
CMS %inh [1]: 3.929% | MOLM-13 %inh [2]: 6.704% | U937 %inh [3]: -1.738% | CMK %inh [4]: 8.732% | ML-2 %inh [5]: 3.521% | M07e %inh [6]: 1.519% | MV4-11 %inh [7]: 3.908% | CHRF288-11 %inh [8]: 42.59%

Cn1cc(C2=C(c3cn(C)c4ccc(Cl)cc34)C(=O)NC2=O)c2ccccc21 [SJ000581098-1]
CMS %inh [1]: 0.498% | MOLM-13 %inh [2]: 13.33% | U937 %inh [3]: 4.952% | CMK %inh [4]: 47.95% | ML-2 %inh [5]: 3.034% | M07e %inh [6]: 13.21% | MV4-11 %inh [7]: 5.255% | CHRF288-11 %inh [8]: 10.98%

Cn1cc(C2=C(c3cn(C)c4ncccc34)C(=O)NC2=O)c2ccccc21 [SJ000581101-1]
CMS %inh [1]: 2.698% | MOLM-13 %inh [2]: 47.28% | U937 %inh [3]: 8.822% | CMK %inh [4]: 41.81% | ML-2 %inh [5]: 0.3677% | M07e %inh [6]: 5.727% | MV4-11 %inh [7]: 0.9422% | CHRF288-11 %inh [8]: 23.35%
